Drawing on ChEMBL document CHEMBL1134063, “Identification of a potent and selective oxytocin antagonist, from screening a fully encoded differential release combinatorial chemical library” (Bioorg Med Chem Lett, 2001), this text covers IC50 for two compounds.

The target of the assay is T1, Oxytocin receptor (Homo sapiens, UniProt P30559).
T1 sequence (P30559 whole entry): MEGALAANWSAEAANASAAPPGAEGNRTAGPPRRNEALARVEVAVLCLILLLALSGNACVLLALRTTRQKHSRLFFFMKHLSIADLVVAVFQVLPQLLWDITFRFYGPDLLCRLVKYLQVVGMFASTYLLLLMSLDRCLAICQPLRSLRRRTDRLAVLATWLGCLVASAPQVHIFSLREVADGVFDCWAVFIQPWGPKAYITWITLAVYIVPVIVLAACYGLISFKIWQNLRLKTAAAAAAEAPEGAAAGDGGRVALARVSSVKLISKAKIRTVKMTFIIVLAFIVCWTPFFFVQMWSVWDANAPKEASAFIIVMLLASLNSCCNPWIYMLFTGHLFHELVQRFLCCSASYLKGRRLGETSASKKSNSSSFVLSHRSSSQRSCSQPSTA
Kind of assay: Inhibitory concentration required for antagonist activity against oxytocin receptor. It counts as functional.

For `CC(=O)CCCC(=O)NC1N=C(c2ccccc2)c2ccccc2N(CC(=O)N[C@@H](Cc2cccs2)C(N)=O)C1=O` (some centres not stated), 1 nM corresponded to half-maximal inhibition (IC50).
Next, `CC(=O)CCCC(=O)NC1N=C(c2ccccc2)c2ccccc2N(CC(=O)N[C@@H](Cc2ccc(Cl)c(Cl)c2)C(N)=O)C1=O` (some centres not stated): 5 nM.

The IC50 is the midpoint of a concentration-inhibition curve. Read a low IC50 as higher potency.
